Measurements taken from patent US7427601B2, “Method for treating tremor” (Schwarz Pharma AG, priority 2004, dated 2008).

Test system: harmaline-induced tremors
Test: Harmaline-induced tremors in rats
Type: in vivo, Male Sprague-Dawley rats
Settings: for Intensity of tremors after harmaline administration (score), Mean ± S.E.M.: scale 0 to 4
Description: Male Sprague-Dawley rats (Charles River Laboratories, France) were used. During the acclimatization period, animals were housed 2 per cage, in Makrolon type III cages, in the animal room (temperature: 20±2° C., humidity: minimum 45%, air changes: >12 per hour, light/dark cycle of 12 h/12 h [on at 7:00 A.M.]). Animals were allowed a minimum of 5 days period before experiment for acclimatization.
Harmaline HCl (Sigma) was diluted in saline and injected at 20 mg/kg, i.p. The reference compound, propanolol was injected i.p. at 20 mg/kg, 30 min before harmaline administration. SPM 927 was given i.p. at 3, 10 and 30 mg/kg, 30 min before harmaline administration.
The following parameters were assessed by an observer blind to the treatment of the animals. • Intensity: from 0 to 4 (0: no tremor, 1: mild tremor, 2: moderate intermittent tremor, 3: moderate persistent tremor, 4: pronounced severe tremor). Intensity will be scored every 30 min and for a total period of 120 min after harmaline administration. • Latency of onset • Total duration of tremor (max observation time: 120 min) • % rat displaying tremor

In the case of `COC[C@@H](NC(C)=O)C(=O)NCc1ccccc1` [SPM 927, (R)-2-acetamide-N-benzyl-3-methoxypropionamide], the “Intensity of tremors after harmaline administration (score), Mean ± S.E.M.” value (from here on “Intensity of tremors … Mean ± S.E.M.”) (3 mg/kg i.p. 30 min before harmaline (20 mg/kg i.p.), +30 min) is reported as 2.0 ± 0.4 score, the “Intensity of tremors … Mean ± S.E.M.” value (3 mg/kg i.p. 30 min before harmaline (20 mg/kg i.p.), +60 min) is reported as 2.0 ± 0.3 score and the “Intensity of tremors … Mean ± S.E.M.” value (3 mg/kg i.p. 30 min before harmaline (20 mg/kg i.p.), +90 min) is reported as 2.1 ± 0.4 score. The “Intensity of tremors … Mean ± S.E.M.” value (3 mg/kg i.p. 30 min before harmaline (20 mg/kg i.p.), +120 min) was 1.8 ± 0.4 score, the “Intensity of tremors … Mean ± S.E.M.” value (10 mg/kg i.p. 30 min before harmaline (20 mg/kg i.p.), +30 min) was 2.0 ± 0.2 score and the “Intensity of tremors … Mean ± S.E.M.” value (10 mg/kg i.p. 30 min before harmaline (20 mg/kg i.p.), +60 min) was 1.1 ± 0.3 score. For the same compound, the “Intensity of tremors … Mean ± S.E.M.” value (10 mg/kg i.p. 30 min before harmaline (20 mg/kg i.p.), +90 min) was 2.2 ± 0.4 score, the “Intensity of tremors … Mean ± S.E.M.” value (10 mg/kg i.p. 30 min before harmaline (20 mg/kg i.p.), +120 min) was 1.3 ± 0.3 score and the “Intensity of tremors … Mean ± S.E.M.” value (30 mg/kg i.p. 30 min before harmaline (20 mg/kg i.p.), +30 min) was 0.9 ± 0.4 score. For the same compound, the “Intensity of tremors … Mean ± S.E.M.” value (30 mg/kg i.p. 30 min before harmaline (20 mg/kg i.p.), +60 min) was 1.1 ± 0.3 score, the “Intensity of tremors … Mean ± S.E.M.” value (30 mg/kg i.p. 30 min before harmaline (20 mg/kg i.p.), +90 min) was 1.4 ± 0.3 score and the “Intensity of tremors … Mean ± S.E.M.” value (30 mg/kg i.p. 30 min before harmaline (20 mg/kg i.p.), +120 min) was 1.2 ± 0.2 score. For the same compound, the “intensity of harmaline-induced tremors (in words)” value (given at 3, 10 and 30 mg/kg) was “reduced the intensity of harmaline-induced tremors in a dose dependent manner”, the “maximal efficacy on tremor intensity compared with propranolol (in words)” value (highest dose tested (30 mg/kg) versus propranolol 20 mg/kg) was “higher than that of the positive reference compound propranolol” and the “intensity of harmaline-induced tremor (in words)” value (rats, summary statement) was “reduced”. For the same compound, the “latency of tremor onset following harmaline injection (in words)” value (rats, summary statement) was “markedly increased” and the “total duration of harmaline-induced tremor (in words)” value (rats, summary statement) was “reduced”.
With `CC(C)NCC(O)COc1cccc2ccccc12` (stereo not shown) [Propranolol, reference compound] the “Intensity of tremors … Mean ± S.E.M.” value (20 mg/kg i.p. 30 min before harmaline (20 mg/kg i.p.), +30 min) was 1.6 ± 0.2 score, the “Intensity of tremors … Mean ± S.E.M.” value (20 mg/kg i.p. 30 min before harmaline (20 mg/kg i.p.), +60 min) was 2.3 ± 0.3 score and the “Intensity of tremors … Mean ± S.E.M.” value (20 mg/kg i.p. 30 min before harmaline (20 mg/kg i.p.), +90 min) was 1.6 ± 0.3 score. For the same compound, the “Intensity of tremors … Mean ± S.E.M.” value (20 mg/kg i.p. 30 min before harmaline (20 mg/kg i.p.), +120 min) was 1.4 ± 0.3 score and the “intensity of tremors (in words)” value (20 mg/kg, each time-point of observation) was “reduced the intensity of tremors in a statistically significant manner”.
